{"source": "patent US20050164929A1", "about": "“Methods of preventing and treating inflammatory bowel disease” (LUPINE LOGIC, INC., priority 2000, published 2005)", "key": {"endothelial cells": {"tested_on": "endothelial cells", "test": "Proliferation summary for variants", "assay_type": "cell-based", "details": "in vitro", "description": "(§1) Experiments were performed to evaluate the proliferative response of representative cell types to CG53135, e.g., a full-length tagged variant (CG53135-01), a deletion variant (CG53135-02), and a full-length codon-optimized untagged variant (CG53135-05).\n(§2) CG53135-02 (batch 1 and 13) was also used in these experiments. Protein was expressed in E. coli, BLR (DE3) (Novagen), transformed with the deletion variant CG53135-02 inserted into a pET24a vector (Novagen). A research cell bank (RCB) was produced and cell paste containing CG53135-02 was produced by fermentation of cells originating from the RCB. Cell membranes were disrupted by high-pressure homogenization, and lysate was clarified by centrifugation. CG53135-02 was purified by ion exchange chromatography. The final protein fraction was dialyzed against the formulation buffer (100 mM citrate, 1 mM ethylenediaminetetraacetic acid (EDTA), and 1 M L-arginine).\n(§3) CG53135-05, DEV10, which were also used in these experiments, was prepared by Cambrex Biosciences (Hopkinton, Mass.) according to Process 1 as described in Section 6.18.1, infra.\n(§4) BrdU Incorporation: proliferative activity was measured by treatment of serum-starved cultured cells with a given agent and measurement of BrdU incorporation during DNA synthesis. Cells were cultured in respective manufacturer recommended basal growth medium supplemented with 10% fetal bovine serum or 10% calf serum as per manufacturer recommendations. Cells were grown in 96-well plates to confluence at 37° C. in 10% CO2/air (to subconfluence at 5% CO2 for dedifferentiated chondrocytes and NHOst). Cells were then starved in respective basal growth medium for 24-72 hours. CG53135 protein purified from E. coli or pCEP4/Sec or pCEP4/Sec-FGF 20× enriched conditioned medium was added (10 μL/100 μL of culture) for 18 hours. BrdU (10 μM final concentration) was then added and incubated with the cells for 5 hours. BrdU incorporation was assayed according to the manufacturer's specifications (Roche Molecular Biochemicals, Indianapolis, Ind.).\n(§5) The above described experiments were also performed using CG53135-02 and CG53135-05 protein products, and the results are summarized in the Conclusion section below."}, "[1]": {"tested_on": "mesenchymal and epithelial cells", "test": "Proliferation summary for variants", "assay_type": "cell-based", "details": "in vitro", "description": "as §1, §2, §3, §4, §5"}, "[2]": {"tested_on": "NIH 3T3 murine embryonic fibroblast cells", "test": "BrdU incorporation bioassay of RP-HPLC peak fractions", "assay_type": "cell-based, mouse", "details": "BrdU incorporation", "description": "The biological activity of CG53135-05 related species collected from the 4 peaks identified by LC and MS was measured by treatment of serum-starved cultured NIH 3T3 murine embryonic fibroblast cells with various doses of the isolated CG53135-05 related species and measurement of incorporation of bromodeoxyuridine (BrdU) during DNA synthesis. For this assay, cells were cultured in Dulbecco's modified Eagle's medium supplemented with 10% fetal bovine serum. Cells were grown in 96-well plates to confluence at 37° C. in 10% CO2/air and then starved in Dulbecco's modified Eagle's medium for 24-72 hours. CG53135-05-related species were added and incubated for 18 hours at 37° C. in 10% CO2/air. BrdU ([…]) was added and incubated with the cells for 2 hours at 37° C. in 10% CO2/air. Incorporation of BrdU was measured by enzyme-linked immunosorbent assay according to the manufacturer's specifications (Roche Molecular Biochemicals, Indianapolis, Ind.).\nPeak 4 was not included in this assay since insufficient material was collected (Peak 4 is less than 3% of the total peak area for CG53135-05)."}, "[3]": {"tested_on": "chronic DSS-induced ulcerative colitis in female Swiss Webster mice", "test": "Chronic DSS colitis, every other day dosing (N-405)", "assay_type": "in vivo, mouse", "details": "3.33 mg/kg (UV) IP on Days 6, 8, 10, 12, 14 (q2d)"}, "[4]": {"tested_on": "DSS-induced ulcerative colitis in female Swiss Webster mice", "test": "Chronic 2 week DSS-induced ulcerative colitis (N-404)", "assay_type": "in vivo, mouse", "description": "Colitis was induced in female Swiss Webster mice by exposure to 3% DSS in the drinking water (ad libitum) on study Days 1-5 and maintained by exposure to 1% DSS in the drinking water (ad libitum) on study Days 6-15. Mice were randomly assigned to 4 groups of 15 animals (Table X). Mice were exposed to 3% DSS in drinking water on test Days 1 through 5 and 1% DSS on test Days 6-15, with concurrent intraperitoneal (IP) treatments of vehicle or CG53135-05 at 0.33, 1.67 and 3.33 mg/kg (UV) Days 6-14 after disease was established. Mice were weighed daily. On Day 15 animals were terminated by cervical dislocation, the colon length was measured, and colon content was scored. Tissues were collected into 10% neutral buffered formalin and processed routinely for histopathology.\nClinical Parameters and Gross Pathology: Only animals that survived the duration of the study were included in the analysis of body weight change, terminal colon lengths, and colon content scores. At necropsy, the colon length was measured and assessed for evidence of stool consistency changes. Colon content was scored at necropsy according to the following criteria: 0=Normal (firm, well formed stool); 1=Semi-solid stool; 2=Semi-solid to fluid stool; and 3=Semi-solid with definite evidence of blood, bloody fluid or no content.\nHistopathology: At necropsy, the colon was harvested and divided into 2 approximately equal segments, proximal and distal, to assess regional changes induced in this model. Distal ends were marked to maintain orientation. These colon segments were collected, preserved in 10% neutral buffered formalin, and routinely processed for histopathologic evaluation. During processing for histology, the proximal and distal colon segments were each trimmed to obtain 4 equally spaced segments, and hematoxylin and eosin (H&E) stained slides were prepared for each. Both proximal and distal tissues were examined as these tissues are affected to different degrees of severity in this model (more severe and less variable symptoms predominate in the distal colon).\nFor each colon section, submucosal edema was quantified by measuring the distance (mm) from the muscularis mucosa to the internal border of the outer muscle layer. The extent of inflammation (foamy macrophages, lymphocytes and polymorphonuclear cell infiltrate) was assigned severity scores according to the following ranking: 0=Normal; 1=Minimal; 2=Mild; 3=Moderate; 4=Marked; and 5=Severe.\nThe parameters reflecting epithelial cell loss/damage were scored individually using a percent area involved scoring method. Parameters that were scored using the percent involvement scale included colon glandular loss and colon erosion. • 0=None • 1=1-10% of the mucosa affected • 2=11-25% of the mucosa affected • 3=26-50% of the mucosa affected • 4=51-75% of the mucosa affected • 5=76-100% of the mucosa affected\nMucosal epithelial hyperplasia (basophilia, mitotic figures, multilayered on basement membranes, absence of goblet cells) was scored 0-5 based on the following criteria • 0=Normal • 1=Minimal-small foci generally adjacent to the inflammatory changes • 2=Mild-11-25% of mucosa affected • 3=Moderate-26-50% of mucosa affected • 4=Marked-[…] of mucosa affected • 5=Severe-51-100% of mucosa affected plus papillary proliferation into lumen\nMucosal thickness (an indicator of proliferative changes or edematous inflammatory mucosal expansion) was measured by placing an ocular micrometer at the base of the glands and the overlying surface epithelium in a non-tangential area of section representative of the thickest areas of mucosa.\nThe scores for proximal tissues and distal colon were averaged to determine a score for the entire colon for each parameter evaluated. […]"}, "[5]": {"details": "3.33 mg/kg (UV), non-significant"}}, "data": [{"substance": "CG53135-05: Codon optimized, full length FGF-20, untagged; SEQ ID NOs 8 and 2", "values": [{"measurement": "proliferation of endothelial cells", "setting": "endothelial cells", "value": "not"}, {"measurement": "proliferation of mesenchymal and epithelial cells", "setting": "[1]", "value": "induce proliferation"}, {"measurement": "induction of DNA synthesis / activity in proliferation assays", "setting": "[2]", "value": "dose-dependent manner"}, {"measurement": "severity of chronic DSS-induced ulcerative colitis", "setting": "[3]", "value": "significantly reduced the severity"}, {"measurement": "reduction in weight loss", "setting": "[4]; 0.33 mg/kg (UV) IP once daily Days 6-14", "value": 19, "unit": "%"}, {"measurement": "reduction in weight loss", "setting": "[4]; 1.67 mg/kg (UV) IP once daily Days 6-14", "value": 35, "unit": "%"}, {"measurement": "improvement in \"on\" inflammation", "setting": "[4]; 3.33 mg/kg (UV)", "value": 35, "unit": "%"}, {"measurement": "improvement in distal gland loss", "setting": "[4]; 3.33 mg/kg (UV)", "value": 38, "unit": "%"}, {"measurement": "improvement in distal summed histopathologic scores", "setting": "[4]; 3.33 mg/kg (UV)", "value": 38, "unit": "%"}, {"measurement": "improvement in total gland loss", "setting": "[4]; 3.33 mg/kg (UV)", "value": 37, "unit": "%"}, {"measurement": "improvement in total inflammation", "setting": "[4]; 3.33 mg/kg (UV)", "value": 34, "unit": "%"}, {"measurement": "improvement in total summed histopathologic scores", "setting": "[4]; 3.33 mg/kg (UV)", "value": 37, "unit": "%"}, {"measurement": "reduction in weight loss", "setting": "[4]; 3.33 mg/kg (UV) IP once daily Days 6-14", "value": 67, "unit": "%"}, {"measurement": "improvement in the hyperplasia score", "setting": "[4]; [5]", "value": 31, "unit": "%"}, {"measurement": "inhibition of the total mucosal thickness", "setting": "[4]; [5]", "value": 39, "unit": "%"}, {"measurement": "colon length, inhibition of decrease", "setting": "[4]; 3.33 mg/kg (UV), statistically significant", "value": 29, "unit": "%"}, {"measurement": "improvement of colon scores", "setting": "[4]; 1.67 or 3.33 mg/kg (UV)", "value": "21-29%"}, {"measurement": "inhibition of proximal, distal and total colon erosion", "setting": "[4]; mid and high dose groups, non-significant", "value": "46-62%"}]}]}
